Bounds are passed on as bounds.

Data set [1] has as its target T1, purified human topoisomerase I (Homo sapiens, UniProt P11387).
T1 construct: purchased Topogen
T1 sequence (P11387 1-765): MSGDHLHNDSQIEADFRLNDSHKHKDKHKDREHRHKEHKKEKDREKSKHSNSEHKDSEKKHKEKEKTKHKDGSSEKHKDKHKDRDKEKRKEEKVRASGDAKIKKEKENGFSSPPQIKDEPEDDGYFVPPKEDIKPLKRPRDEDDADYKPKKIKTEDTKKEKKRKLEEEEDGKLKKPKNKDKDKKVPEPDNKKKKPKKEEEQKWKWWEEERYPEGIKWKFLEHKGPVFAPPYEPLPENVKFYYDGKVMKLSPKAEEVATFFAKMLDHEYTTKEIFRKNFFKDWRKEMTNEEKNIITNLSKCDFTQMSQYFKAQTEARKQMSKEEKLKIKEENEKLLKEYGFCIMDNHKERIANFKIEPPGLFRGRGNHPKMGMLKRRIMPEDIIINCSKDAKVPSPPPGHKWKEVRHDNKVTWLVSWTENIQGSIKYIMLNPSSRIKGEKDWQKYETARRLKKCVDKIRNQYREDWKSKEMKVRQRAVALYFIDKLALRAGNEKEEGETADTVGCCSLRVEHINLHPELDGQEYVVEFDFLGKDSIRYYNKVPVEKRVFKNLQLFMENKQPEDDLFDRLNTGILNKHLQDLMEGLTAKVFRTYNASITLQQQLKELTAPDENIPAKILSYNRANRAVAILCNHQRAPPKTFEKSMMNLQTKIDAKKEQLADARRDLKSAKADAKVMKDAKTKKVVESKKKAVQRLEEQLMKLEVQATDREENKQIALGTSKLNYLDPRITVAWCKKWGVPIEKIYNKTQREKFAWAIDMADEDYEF
Put plainly: Topoisomerase I activity (in vitro): compound-induced, topoisomerase I-mediated single strand breaks in PM2 DNA. In kind it is biochemical. Conditions: 30 minutes at 37° C., agarose gel densitometry, read-out: EC50 (median effective concentration for inducing topoisomerase I-mediated single strand breaks in DNA). As for the experimental part:
Topoisomerase I Activity (In Vitro)
Topoisomerase I activity was measured as described below: The procedure for assaying compound-induced, topoisomerase I-mediated single strand breaks in DNA was essentially that described by Hsiang, et al., (J. Biol Chem. 1985, 260, 14873-14878). Samples dissolved in 100% DMSO as either 10 μM or 10 mg/ml solutions, unless otherwise stated, were diluted in Tris-EDTA buffer. Marine bacteriophage PM2 DNA (Boehringer Mannheim) was also diluted in Tris-EDTA buffer to a concentration of 0.02 μg/μl. Different dilutions of the compound being evaluated were mixed with diluted DNA and this mixture was added to 1000 unit (one unit of enzyme activity is defined as the amount capable of relaxing 100 ng of supercoiled DNA in approximately 30 minutes at 37° C.) aliquots of purified human topoisomerase I (Topogen) in 2× reaction buffer to start the reaction. The compound-DNA-enzyme mixture was incubated for 30 minutes at 37° C. before stopping the reaction with warm stop buffer containing sodium dodecyl sulfate and proteinase K (Sigma). These mixtures were allowed to incubate at 37° C. for another 10 minutes, at which time the mixtures were removed from the waterbath and extracted with a 24:1 mixture of chloroform/isoamyl alcohol. Following centrifugation, aliquots of the aqueous phases were placed in wells of a 0.9% agarose (SeaKem) gel in Tris-borate buffer containing 0.5 μg/ml of ethidium bromide and subjected to electrophoresis for 15 hours to separate the different topological isomers and nicked and broken DNAs. After destaining the gel in water, the ethidium bromide stained DNA reaction products were visualized by exposing the gel to UV irradiation. Negatives of the photographs of the irradiated gels were scanned with a densitometer and areas under the peaks were calculated in order to obtain percent single strand DNA break formation for each sample. A median effective concentration (EC50) was obtained for each compound by interpolation between points of the resulting dose-effect curve which defines the potency of the compound for its effect in inducing topoisomerase I-mediated single strand breaks in DNA.
The topoisomerase I activity for certain compounds of the present invention is shown below in Table I.

The subject of data set [2] is murine P388 cell line. Put plainly: In vitro cell-based cytotoxicity: proliferation inhibition, XTT tetrazolium assay. Conditions: Mus musculus; P388 cells, 72 h at 37° C., XTT absorbance at 450 nm; read-out: IC50 (drug concentration required to inhibit cell proliferation to 50% of untreated control cells). The procedure:
In Vitro Cell-Based Cytotoxicity Activity
The proliferation inhibition activity against murine P388 cell line was measured as follows. Evaluation of a soluble tetrazolium/formazan assay for cell growth and drug sensitivity in culture, using human and other tumor cell lines, was done according to the procedure described in Cancer Res. 1988, 48, 4827-4833. Cells were plated at 4000 cells/well in 96 well microtiter plates and 24 h later drugs were added and serially diluted. The cells were incubated at 37° C. for 72 h, at which time a tetrazolium dye, XTT, containing phenazine methosulfate was added. A dehydrogenase enzyme in live cells reduced the XTT to a form that absorbs light at 450 nm, which could be quantitated spectrophotometrically. The greater the absorbance the greater the number of live cells. The results are expressed as an IC50, which is the drug concentration required to inhibit cell proliferation (i.e., absorbance at 450 nm) to 50% of that of untreated control cells.
(In general: Tetrazolium assays rely on reduction of a dye to a coloured formazan, in cell work by metabolically active cells.)

The melting point is the temperature of the solid-liquid transition. Consider `O=C1NC(=O)c2c1c1c3ccc(F)cc3n3c1c1c2c2ccc(F)cc2n1[C@@H]1O[C@H](CO)[C@@H](O)[C@H](O)[C@@H]13` [Example 24, 2,10-Difluoro-12,13-[1,2-β-D-glucopyranosyl]-6,7,12,13-tetrahydro(5H)-indolo-[2,3-a]pyrrolo[3,4-c]carbazole-5,7-dione], for which the melting point was over 300 °C. In addition, the EC50 in data set [1] was over 100 µM. In addition, in data set [2], the IC50 turned out to be 1.15 µM.
The matching figures for `O=C1NC(=O)c2c1c1c3ccc(F)cc3n3c1c1c2c2ccc(F)cc2n1C1OC(C3)C(F)C(O)C1O` [Example 11, 2,10-Difluoro-12,13-[1,6-(4-deoxy-4-fluoro-β-D-glucopyranosyl)]-6,7,12,13-tetrahydro(5H)indolo[2,3-a]pyrrolo[3,4-c]carbazole-5,7-dione]: 315 °C (dec.), 3.3 µM and 0.021 µM.

The record behind these values is patent US6677450B2, “Topoisomerase inhibitors” (Bristol-Myers Squibb Company, priority 2000, dated 2004).
